Test results published in the supplement of paper PMC10307832.

Columns and labels:
Experiment in all cases: relative viability (nuclei count vs DMSO), 5 days (fraction); higher = more cells survive
[1] = compound: CC(C)C[C@H](NC(=O)[C@H](CCc1ccccc1)NC(=O)CN1CCOCC1)C(=O)N[C@@H](Cc1ccccc1)C(=O)N[C@@H](CC(C)C)C(=O)[C@@]1(C)CO1 [Carfilzomib] + Cc1nc(NC(=O)N2CCC[C@H]2C(N)=O)sc1-c1ccnc(C(C)(C)C(F)(F)F)c1 [Alpelisib] (partner 2 µM)
Summary of the method: (§1)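 Each reported value is a median over duplicate plates. It expresses relative viability: treated-well nuclei count divided by vehicle-well nuclei count. Lung cancer cell lines in 1536-well plates were dosed by pin tool a day after seeding, alone with one drug or with a fixed anchor-drug dose plus five library-drug doses (not always all listed) in √10 steps, and nuclei were counted after 5 days.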

[2] = compound: C[C@@H](Oc1cc(-c2cnn(C3CCNCC3)c2)cnc1N)c1c(Cl)ccc(F)c1Cl [Crizotinib] + CC(=O)c1c(C)c2cnc(Nc3ccc(N4CCNCC4)cn3)nc2n(C2CCCC2)c1=O [Palbociclib] (partner 0.5 µM)
Summary of the method: as §1

[3] = compound: C[C@@H](Oc1cc(-c2cnn(C3CCNCC3)c2)cnc1N)c1c(Cl)ccc(F)c1Cl [Crizotinib] + Nc1nc2[nH]cc(CCc3ccc(C(=O)N[C@@H](CCC(=O)O)C(=O)O)cc3)c2c(=O)[nH]1 [Pemetrexed] (partner 0.2 µM)
Summary of the method: as §1

[4] = compound: O=C(c1cc(Cc2n[nH]c(=O)c3ccccc23)ccc1F)N1CCN(C(=O)C2CC2)CC1 [Olaparib] + Nc1nc2[nH]cc(CCc3ccc(C(=O)N[C@@H](CCC(=O)O)C(=O)O)cc3)c2c(=O)[nH]1 [Pemetrexed] (partner 0.2 µM)
Summary of the method: as §1

| Cell Line | relative viability ([1]; first compound 0.001 µM) | relative viability ([1]; first compound 0.003162 µM) | relative viability ([1]; first compound 0.01 µM) | relative viability ([1]; first compound 0.03162 µM) | relative viability ([1]; first compound 0.1 µM) | relative viability ([2]; first compound 0.01 µM) | relative viability ([2]; first compound 0.03162 µM) | relative viability ([2]; first compound 0.1 µM) | relative viability ([2]; first compound 0.3162 µM) | relative viability ([2]; first compound 1 µM) | relative viability ([3]; first compound 0.01 µM) | relative viability ([3]; first compound 0.03162 µM) | relative viability ([3]; first compound 0.1 µM) | relative viability ([3]; first compound 0.3162 µM) | relative viability ([3]; first compound 1 µM) | relative viability ([4]; first compound 0.08 µM) | relative viability ([4]; first compound 0.253 µM) | relative viability ([4]; first compound 2.53 µM) | relative viability ([4]; first compound 8 µM) |
| --- | --- | --- | --- | --- | --- | --- | --- | --- | --- | --- | --- | --- | --- | --- | --- | --- | --- | --- | --- |
| NCI-H2347 | 0.96 | 1.18 | 1.05 | 0.875 | 0.345 | 0.384 | 0.441 | 0.465 | 0.437 | 0.335 | 0.387 | 0.441 | 0.446 | 0.457 | 0.416 | 0.474 | 0.476 | 0.435 | 0.397 |
| NCI-H2405 |  | 1.13 | 0.777 | 0.312 | 0.168 | 0.479 | 0.515 | 0.509 | 0.56 | 0.501 | 0.875 | 1.09 | 1.04 | 0.993 |  | 1.02 | 0.931 | 1.02 | 1.01 |
| NCI-H3122 | 0.748 | 0.847 | 0.748 | 0.959 | 0.69 | 0.176 | 0.184 | 0.16 | 0.2 | 0.187 | 0.192 | 0.196 | 0.195 | 0.182 | 0.192 | 0.202 | 0.194 | 0.191 | 0.18 |
| PC-3 [JPC-3] | 1.07 | 1.08 | 1.02 | 0.824 | 0.257 | 0.53 | 0.566 | 0.545 |  | 0.553 | 0.883 | 1.23 | 1.19 |  | 1.05 | 1.1 |  | 1.26 | 1.05 |
| PC-14 | 0.958 | 0.981 | 0.976 | 0.0805 | 0.0691 | 0.52 | 0.53 | 0.419 | 0.566 | 0.535 | 0.124 | 0.127 | 0.134 | 0.143 | 0.132 | 0.131 | 0.14 | 0.135 | 0.139 |
